Laboratory results published in US20220306659A1, “COMPOUND INHIBITING AND INDUCING DEGRADATION OF EGFR AND ALK” (BEIJING TIDE PHARMACEUTICAL CO., LTD., priority 2019, published 2022).

Experiments:
EGFR^L858R/T790M/C797S = EGFR^L858R/T790M/C797S (Homo sapiens, UniProt P00533, C797S/L858R/T790M); assay: EGFR inhibitory activity assay (TK-substrate-biotin/ATP, 665/615 ratio); type: biochemical; conditions: kinase inhibition
Procedure: EGFR Inhibitory Activity Assay
(1) A compound stock solution was prepared and diluted 3× to obtain a compound dilution; 10 nL of the compound dilution was transferred to a 384-well plate (784075, Greiner) by Echo 550;
(2) The plate was sealed, and centrifuged at 1,000 g for 1 min;
(4) 5 μl of the 2×EGFR protein working solution was added to the 384-well plate from step (2), centrifuged at 1,000 g for 30 s, and allowed to stand at room temperature (mixed thoroughly) for 10 min;
(6) 5 µL of the TK-substrate-biotin and ATP (the mixture prepared in step (5)) was added to the 384-well plate from step (4) to initiate the reaction;
(7) The mixture was centrifuged at 1,000 g for 30 s; the plate was sealed, and allowed to stand (and reacted) at room temperature for 40 min;
(8) 4×Sa-XL 665 and TK-antibody-Cryptate were prepared with detection buffer;
(9) 5 µL of the Sa-XL 665 and 5 µL of the TK-antibody-Cryptate were added successively to the 384-well plate from step (7);
(10) The mixture was centrifuged at 1,000 g for 30 s, and allowed to stand (reacted) at room temperature for 1 h;
(11) The fluorescence values were read at 615 nm and 665 nm by enzyme labeling instrument (PerkinElmer, 74785).
The ratio (665/615) of each well was calculated.
Formula of inhibition rate (%): […]
Ratiocmpd: Ratio (665/615) value of assay compound.
Ratiopositive: Average ratio (665/615) value of positive control.
Ratiovehicle: Average ratio (665/615) value of negative control.
(§1) The nonlinear regression curve (dose response-variable slope) between the value of inhibition rate (%) and the logarithm of compound concentration was fitted with graphpad prism 8.0, the effect dose curve of compound was drawn, and the IC50 value was calculated.

[1] = target: Ba/F3(EGFR^L858R/T790M/C797S) cells (Homo sapiens, UniProt P00533, T790M/C797S/L858R, cells depend on it); assay: Assay of activity on Ba/F3 cells (CTG, 72 h); type: cell-based; conditions: read-out: IC50 (nM) Ba/F3 (EGFR^L858R/T790M/C797S)
In short: (§2)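 Ba/F3 cells dependent on each EGFR triple mutant were exposed to 3-fold compound dilutions for 72 h at 37° C, 5% CO2, with CellTiter-Glo luminescence as the read-out.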

Ba/F3(EML4-ALK) cells = target: T1, Ba/F3(EML4-ALK) cells (Homo sapiens, UniProt Q9UM73); assay: Assay of activity on Ba/F3(EML4-ALK) cells (CTG, 72 h); type: cell-based; conditions: read-out: IC50 (nM) Ba/F3(EML4-ALK)
T1 construct: fused on or other part: Q9HC35 (Echinoderm microtubule-associated protein-like 4)
Procedure: Assay of activity on Ba/F3(EML4-ALK) cells
(1) Ba/F3(EML4-ALK) cells were cultured according to the requirements of ATCC, incubated in an incubator at 37° C. and 5% CO2, and analyzed by index; cells with viability of >90% can be used in the assay, and cells were seeded in a 384-well plate (PerkinElmer, 6007680) with 700 cells/well, 30 μl/well.
(2) A compound stock solution was prepared, and diluted 3× to obtain a compound dilution; 30 nL of the serial dilution was added to a 384-well plate (784075, Greiner) by Echo 550, and cells were incubated in an incubator at 37° C. and 5% CO2 for 72 h.
(3) 30 μL of CTG was added to each well, and the 384-well plate was shaken on a Plate shaker (QILINBEIER, QB-9002); the 384-well plate was incubated in the dark at 37° C. and 5% CO2 for 30 min, and the chemiluminescence value was read by Envision (PerkinElmer, EnVision 2104).
The percent inhibition rate (% inhibition) was calculated by the formula below
LUMcmpd: Luminescence value of assay compound.
LUMpositive: Average LUM value of positive drug at a concentration of 10 μM.
LUM^vehicle: Average LUM value of negative control group without drug treatment.
as §1
Y=Bottom+(Top−Bottom)/(1+10^((LogIC50−X)*HillSlope))
X-axis: logarithm of compound concentration; Y axis: inhibition rate (% inhibition).

[2] = target: Ba/F3(EGFR^Del19/T790M/C797S) cells (Homo sapiens, UniProt P00533, DEL746-750/T790M/C797S, cells depend on it); assay: Assay of activity on Ba/F3 cells (CTG, 72 h); type: cell-based; conditions: read-out: IC50 (nM) Ba/F3 (EGFR^Del19/T790M/C797S)
In short: as §2

Sequence of EGFR^L858R/T790M/C797S (P00533 25-1210 T790M/C797S/L858R): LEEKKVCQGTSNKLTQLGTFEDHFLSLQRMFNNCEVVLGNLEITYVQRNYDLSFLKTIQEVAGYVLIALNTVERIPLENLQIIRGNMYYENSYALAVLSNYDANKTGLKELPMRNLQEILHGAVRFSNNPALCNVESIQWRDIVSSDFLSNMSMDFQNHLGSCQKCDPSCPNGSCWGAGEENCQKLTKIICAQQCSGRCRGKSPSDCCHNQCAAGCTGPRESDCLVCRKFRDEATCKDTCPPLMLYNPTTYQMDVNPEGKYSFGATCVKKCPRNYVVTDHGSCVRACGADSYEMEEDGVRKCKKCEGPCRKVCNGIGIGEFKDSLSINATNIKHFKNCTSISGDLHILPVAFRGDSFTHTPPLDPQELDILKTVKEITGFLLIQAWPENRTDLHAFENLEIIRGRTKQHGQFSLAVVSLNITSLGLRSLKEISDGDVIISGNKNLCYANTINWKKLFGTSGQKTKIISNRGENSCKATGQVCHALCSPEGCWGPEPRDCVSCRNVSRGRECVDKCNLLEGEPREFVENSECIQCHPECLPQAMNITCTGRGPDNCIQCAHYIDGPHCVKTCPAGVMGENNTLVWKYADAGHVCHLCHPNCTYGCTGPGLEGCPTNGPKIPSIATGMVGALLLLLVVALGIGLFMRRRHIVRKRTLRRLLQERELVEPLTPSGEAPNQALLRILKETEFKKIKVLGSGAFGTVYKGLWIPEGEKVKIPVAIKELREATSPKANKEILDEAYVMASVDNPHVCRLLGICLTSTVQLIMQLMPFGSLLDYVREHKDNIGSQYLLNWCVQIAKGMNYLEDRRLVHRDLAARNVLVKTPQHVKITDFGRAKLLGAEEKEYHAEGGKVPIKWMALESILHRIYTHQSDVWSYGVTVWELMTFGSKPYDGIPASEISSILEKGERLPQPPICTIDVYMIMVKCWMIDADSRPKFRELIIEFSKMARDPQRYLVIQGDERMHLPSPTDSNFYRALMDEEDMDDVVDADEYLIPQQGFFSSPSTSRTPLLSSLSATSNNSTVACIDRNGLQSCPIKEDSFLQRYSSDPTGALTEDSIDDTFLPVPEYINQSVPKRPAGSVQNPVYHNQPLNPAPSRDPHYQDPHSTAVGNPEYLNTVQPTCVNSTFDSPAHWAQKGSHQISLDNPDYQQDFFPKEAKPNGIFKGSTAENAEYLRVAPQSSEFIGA
Sequence of Ba/F3(EGFR^L858R/T790M/C797S) cells (P00533 whole entry T790M/C797S/L858R): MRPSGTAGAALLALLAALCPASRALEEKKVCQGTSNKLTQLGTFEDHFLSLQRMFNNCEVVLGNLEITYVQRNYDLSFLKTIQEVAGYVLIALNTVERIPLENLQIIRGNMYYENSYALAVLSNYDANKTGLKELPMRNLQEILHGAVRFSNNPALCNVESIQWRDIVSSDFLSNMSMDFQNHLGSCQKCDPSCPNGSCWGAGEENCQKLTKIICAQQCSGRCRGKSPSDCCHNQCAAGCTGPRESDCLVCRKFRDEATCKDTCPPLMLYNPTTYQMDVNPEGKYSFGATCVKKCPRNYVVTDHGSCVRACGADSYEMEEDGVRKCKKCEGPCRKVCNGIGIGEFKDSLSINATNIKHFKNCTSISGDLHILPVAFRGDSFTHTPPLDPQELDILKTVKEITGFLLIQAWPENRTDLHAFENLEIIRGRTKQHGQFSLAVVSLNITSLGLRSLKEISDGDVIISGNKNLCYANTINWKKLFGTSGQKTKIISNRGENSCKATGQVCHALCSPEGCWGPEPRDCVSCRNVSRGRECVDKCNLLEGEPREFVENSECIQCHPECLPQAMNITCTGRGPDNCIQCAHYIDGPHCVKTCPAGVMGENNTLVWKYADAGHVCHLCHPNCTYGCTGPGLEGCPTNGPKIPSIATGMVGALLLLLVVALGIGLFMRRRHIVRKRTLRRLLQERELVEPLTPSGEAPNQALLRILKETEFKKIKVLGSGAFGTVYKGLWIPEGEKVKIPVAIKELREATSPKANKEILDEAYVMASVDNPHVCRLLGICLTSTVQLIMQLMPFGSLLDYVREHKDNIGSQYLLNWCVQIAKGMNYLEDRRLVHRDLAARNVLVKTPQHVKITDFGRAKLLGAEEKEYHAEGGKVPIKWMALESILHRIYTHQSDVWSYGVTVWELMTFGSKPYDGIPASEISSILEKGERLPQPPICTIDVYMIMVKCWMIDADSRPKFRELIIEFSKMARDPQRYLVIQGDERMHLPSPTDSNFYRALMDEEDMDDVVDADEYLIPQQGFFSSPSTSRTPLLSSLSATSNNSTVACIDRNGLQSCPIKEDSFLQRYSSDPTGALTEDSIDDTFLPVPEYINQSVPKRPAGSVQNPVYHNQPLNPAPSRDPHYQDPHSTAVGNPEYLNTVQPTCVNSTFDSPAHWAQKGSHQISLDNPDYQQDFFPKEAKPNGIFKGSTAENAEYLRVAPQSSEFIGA
Sequence of Ba/F3(EGFR^Del19/T790M/C797S) cells (P00533 with tags, fused parts or gaps DEL746-750/T790M/C797S): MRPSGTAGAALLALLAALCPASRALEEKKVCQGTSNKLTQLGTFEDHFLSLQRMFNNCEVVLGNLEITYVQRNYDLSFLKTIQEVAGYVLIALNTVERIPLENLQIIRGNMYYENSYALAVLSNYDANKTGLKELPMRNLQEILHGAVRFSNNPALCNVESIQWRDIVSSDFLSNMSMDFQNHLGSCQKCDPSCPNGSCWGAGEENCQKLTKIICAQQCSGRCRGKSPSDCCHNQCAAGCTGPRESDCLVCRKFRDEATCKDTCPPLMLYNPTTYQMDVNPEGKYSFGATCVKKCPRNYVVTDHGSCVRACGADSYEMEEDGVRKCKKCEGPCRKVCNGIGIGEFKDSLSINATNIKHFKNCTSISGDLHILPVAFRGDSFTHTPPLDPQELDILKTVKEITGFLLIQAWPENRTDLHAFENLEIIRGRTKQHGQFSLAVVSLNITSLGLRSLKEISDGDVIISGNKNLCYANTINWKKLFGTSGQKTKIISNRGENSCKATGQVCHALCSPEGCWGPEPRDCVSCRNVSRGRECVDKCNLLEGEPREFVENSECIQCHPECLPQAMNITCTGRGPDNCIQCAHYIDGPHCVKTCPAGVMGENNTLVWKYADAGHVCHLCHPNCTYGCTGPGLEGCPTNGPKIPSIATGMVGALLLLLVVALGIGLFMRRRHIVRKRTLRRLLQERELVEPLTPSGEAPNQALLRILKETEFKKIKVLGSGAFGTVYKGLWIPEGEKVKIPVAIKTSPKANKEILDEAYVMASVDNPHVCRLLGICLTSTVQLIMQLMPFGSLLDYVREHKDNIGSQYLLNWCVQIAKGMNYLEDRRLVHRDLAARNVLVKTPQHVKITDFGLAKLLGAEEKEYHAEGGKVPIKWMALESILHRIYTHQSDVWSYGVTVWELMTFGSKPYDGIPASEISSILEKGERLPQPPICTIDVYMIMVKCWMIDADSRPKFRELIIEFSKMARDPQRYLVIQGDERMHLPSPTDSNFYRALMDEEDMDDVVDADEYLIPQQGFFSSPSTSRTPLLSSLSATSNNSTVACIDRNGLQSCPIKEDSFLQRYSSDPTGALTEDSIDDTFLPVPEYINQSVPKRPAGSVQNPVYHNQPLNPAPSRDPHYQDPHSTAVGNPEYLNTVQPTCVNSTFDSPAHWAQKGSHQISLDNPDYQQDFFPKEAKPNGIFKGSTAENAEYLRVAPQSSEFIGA

SMILES	IC50 (EGFR^L858R/T790M/C797S)	GI50 [1]	GI50 (Ba/F3(EML4-ALK) cells)	GI50 [2]
COc1cc(N2CCC(N3CCN(CC(=O)NCCNc4cccc5c4C(=O)N(C4CCC(=O)NC4=O)C5=O)CC3)CC2)ccc1Nc1ncc(Cl)c(Nc2ccccc2P(C)(C)=O)n1 (stereo not shown) [Compound A6, 2-(4-(1-(4-((5-chloro-4-((2-(dimethylphosphoryl)phenyl)amino)pyrimidin-2-yl)amino)-3-methoxyphenyl)piperidin-4-yl)piperazin-1-yl)-N-(2-((2-(2,6-dioxopiperidin-3-yl)-1,3-dioxoisoindolin-4-yl)amino)ethyl)acetamide]	1 to 100 nM	–	–	–
COc1cc(N2CCC(N3CCN(CC(=O)N4CCC(OCC(=O)Nc5cccc6c5CN(C5CCC(=O)NC5=O)C6=O)CC4)CC3)CC2)ccc1Nc1ncc(Cl)c(Nc2ccccc2P(C)(C)=O)n1 (stereo not shown) [Compound C78, 2-((1-(2-(4-(1-(4-((5-chloro-4-((2-(dimethylphosphoryl)phenyl)amino)pyrimidin-2-yl)amino)-3-methoxyphenyl)piperidin-4-yl)piperazin-1-yl)acetyl)piperidin-4-yl)oxy)—N-(2-(2,6-dioxopiperidin-3-yl)-1-oxoisoindolin-4-yl)acetamide]	1 to 100 nM	> 300 nM	–	–
COc1cc(N2CCC(N3CCN(CC(=O)NC4CCN(CC(=O)Nc5cccc6c5CN(C5CCC(=O)NC5=O)C6=O)CC4)CC3)CC2)ccc1Nc1ncc(Cl)c(Nc2ccccc2P(C)(C)=O)n1 (stereo not shown) [Compound C88, 2-(4-(1-(4-((5-chloro-4-((2-(dimethylphosphoryl)phenyl)amino)pyrimidin-2-yl)amino)-3-methoxyphenyl)piperidin-4-yl)piperazin-1-yl)-N-(1-(2-((2-(2,6-dioxopiperidin-3-yl)-1-oxoisoindolin-4-yl)amino)-2-oxoethyl)piperidin-4-yl)acetamide]	1 to 100 nM	> 300 nM	–	–
COc1cc(N2CCC(N3CCN(C(=O)CN4CCN(C(=O)COc5cccc6c5C(=O)N(C5CCC(=O)NC5=O)C6=O)CC4)CC3)CC2)ccc1Nc1ncc(Cl)c(Nc2ccccc2P(C)(C)=O)n1 (stereo not shown) [Compound C99, 4-(2-(4-(2-(4-(1-(4-((5-chloro-4-((2-(dimethylphosphoryl)phenyl)amino)pyrimidin-2-yl)amino)-3-methoxyphenyl)piperidin-4-yl)piperazin-1-yl)-2-oxoethyl)piperazin-1-yl)-2-oxoethoxy)-2-(2,6-dioxopiperidin-3-yl)isoindoline-1,3-dione]	1 to 100 nM	> 300 nM	–	–
COc1cc(N2CCC(N3CCN(C(=O)COc4cccc5c4C(=O)N(C4CCC(=O)NC4=O)C5=O)CC3)CC2)ccc1Nc1ncc(Cl)c(Nc2ccccc2P(C)(C)=O)n1 (stereo not shown) [Compound C101, 4-(2-(4-(1-(4-((5-chloro-4-((2-(dimethylphosphoryl)phenyl)amino)pyrimidin-2-yl)amino)-3-methoxyphenyl)piperidin-4-yl)piperazin-1-yl)-2-oxoethoxy)-2-(2,6-dioxopiperidin-3-yl)isoindoline-1,3-dione]	1 to 100 nM	> 300 nM	–	–
COc1cc(N2CCC(N3CCN(CC(=O)N4CC(F)(F)C[C@H]4C(=O)Nc4cccc5c4CN(C4CCC(=O)NC4=O)C5=O)CC3)CC2)ccc1Nc1ncc(Cl)c(Nc2ccccc2P(C)(C)=O)n1 (stereo partly drawn) [Compound C110, (2S)-1-(2-(4-(1-(4-((5-chloro-4-((2-(dimethylphosphoryl)phenyl)amino)pyrimidin-2-yl)amino)-3-methoxyphenyl)piperidin-4-yl)piperazin-1-yl)acetyl)-N-(2-(2,6-dioxopiperidin-3-yl)-1-oxoisoindolin-4-yl)-4,4-difluoropyrrolidine-2-carboxamide]	1 to 100 nM	> 300 nM	–	–
COc1cc(N2CCC(N3CCN(CC(=O)N[C@H](COc4cccc5c4C(=O)N(C4CCC(=O)NC4=O)C5=O)C(C)(C)C)CC3)CC2)ccc1Nc1ncc(Cl)c(Nc2ccccc2P(C)(C)=O)n1 (stereo partly drawn) [Compound C112, 2-(4-(1-(4-((5-chloro-4-((2-(dimethylphosphoryl)phenyl)amino)pyrimidin-2-yl)amino)-3-methoxyphenyl)piperidin-4-yl)piperazin-1-yl)-N-((2S)-1-((2-(2,6-dioxopiperidin-3-yl)-1,3-dioxoisoindolin-4-yl)oxy)-3,3-dimethylbutan-2-yl)acetamide]	1 to 100 nM	–	–	–
COc1cc(N2CCC(N3CCN(CCCCCC#Cc4ccc5c(c4)CN(C4CCC(=O)NC4=O)C5=O)CC3)CC2)c(C)cc1Nc1ncc(Br)c(Nc2ccc3nccnc3c2P(C)(C)=O)n1 (stereo not shown) [Compound C163, 3-(5-(7-(4-(1-(4-((5-bromo-4-((5-(dimethylphosphoryl)quinoxalin-6-yl)amino)pyrimidin-2-yl)amino)-5-methoxy-2-methylphenyl)piperidin-4-yl)piperazin-1-yl)hept-1-yn-1-yl)-1-oxoisoindolin-2-yl)piperidine-2,6-dione]	–	–	1 to 100 nM	1 to 100 nM

More lines, now with the values ahead:

IC50 (EGFR^L858R/T790M/C797S)	GI50 [1]	GI50 (Ba/F3(EML4-ALK) cells)	GI50 [2]	SMILES
101 to 200 nM	201 to 300 nM	–	–	C=Cc1cnc(Nc2ccc(N3CCC(N4CCN(CCCCCCCCCOc5cccc6c5C(=O)N(C5CCC(=O)NC5=O)C6=O)CC4)CC3)cc2OC)nc1Nc1ccccc1P(C)(C)=O (stereo not shown) [Compound C25, 4-((9-(4-(1-(4-((4-((2-(dimethylphosphoryl)phenyl)amino)-5-vinylpyrimidin-2-yl)amino)-3-methoxyphenyl)piperidin-4-yl)piperazin-1-yl)nonyl)oxy)-2-(2,6-dioxopiperidin-3-yl)isoindoline-1,3-dione]
1 to 100 nM	> 300 nM	–	–	COc1cc(N2CCC(N3CCN(C(=O)C4(C(=O)Oc5cccc6c5C(=O)N(C5CCC(=O)NC5=O)C6=O)CC4)CC3)CC2)ccc1Nc1ncc(Cl)c(Nc2ccccc2P(C)(C)=O)n1 (stereo not shown) [Compound C104, 1-(4-(1-(4-((5-chloro-4-((2-(dimethylphosphoryl)phenyl)amino)pyrimidin-2-yl)amino)-3-methoxyphenyl)piperidin-4-yl)piperazine-1-carbonyl)cyclopropane-1-carboxylate 2-(2,6-dioxopiperidin-3-yl)-1,3-dioxoisoindolin-4-yl ester]
1 to 100 nM	> 300 nM	–	–	COc1cc(N2CCC(N3CCN(CCCCCC#Cc4cccc5c4C(=O)N(C4CCC(=O)NC4=O)C5=O)CC3)CC2)ccc1Nc1ncc(Cl)c(Nc2ccccc2P(C)(C)=O)n1 (stereo not shown) [Compound C148, 4-(7-(4-(1-(4-((5-chloro-4-((2-(dimethylphosphoryl)phenyl)amino)pyrimidin-2-yl)amino)-3-methoxyphenyl)piperidin-4-yl)piperazin-1-yl)hept-1-yn-1-yl)-2-(2,6-dioxopiperidin-3-yl)isoindoline-1,3-dione]
–	–	1 to 100 nM	1 to 100 nM	COc1cc(N2CCC3(CCN(CCCCCCC#Cc4cccc5c4CN(C4CCC(=O)NC4=O)C5=O)CC3)CC2)c(C)cc1Nc1ncc(Br)c(Nc2ccc3nccnc3c2P(C)(C)=O)n1 (stereo not shown) [Compound C172, 3-(4-(8-(9-(4-((5-bromo-4-((5-(dimethylphosphoryl)quinoxalin-6-yl)amino)pyrimidin-2-yl)amino)-5-methoxy-2-methylphenyl)-3,9-diazaspiro[5.5]undecan-3-yl)oct-1-yn-1-yl)-1-oxoisoindolin-2-yl)piperidine-2,6-dione]
